By IC50 is commonly meant the point on the concentration scale where inhibition reaches its midpoint. High values mean weaker potency, low ones greater potency.

Bounds are passed on as bounds.

The assay addresses T1, Glucose-6-phosphate 1-dehydrogenase (Leuconostoc mesenteroides, UniProt P11411).
T1 sequence (P11411 whole entry): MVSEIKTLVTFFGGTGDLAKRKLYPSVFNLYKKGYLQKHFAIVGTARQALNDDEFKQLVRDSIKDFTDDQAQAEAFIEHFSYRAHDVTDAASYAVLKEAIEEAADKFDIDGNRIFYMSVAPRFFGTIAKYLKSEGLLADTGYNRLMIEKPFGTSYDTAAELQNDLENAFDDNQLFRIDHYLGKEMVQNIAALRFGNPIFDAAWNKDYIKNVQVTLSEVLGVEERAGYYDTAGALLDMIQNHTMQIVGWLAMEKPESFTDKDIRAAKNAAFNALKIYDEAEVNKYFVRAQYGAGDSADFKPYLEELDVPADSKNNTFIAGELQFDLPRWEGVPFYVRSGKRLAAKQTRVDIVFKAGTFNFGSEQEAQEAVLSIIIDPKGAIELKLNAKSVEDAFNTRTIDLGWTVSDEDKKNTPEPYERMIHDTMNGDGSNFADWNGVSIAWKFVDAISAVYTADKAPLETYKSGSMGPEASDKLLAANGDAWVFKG
Put plainly: Leuconostoc G6PDH inhibition potency, SAR follow-up, counter-screen for TbHK1 inhibitor project, biochemical, analogue series, IC50 (AID 2579).
Molecule `COc1ccc(CC(=O)Nc2cc(Cl)ccc2C(=O)O)cc1` [KUC105993N] gave a 50% inhibitory concentration (IC50) of over 25 µM.

For `O=c1c2ccc(Br)cc2sn1-c1ccccc1`, the half-inhibitory concentration (IC50) was over 25 µM.

`COC(=O)c1ccc(Cl)cc1NS(=O)(=O)c1ccc(OC)cc1` yielded an IC50 of over 25 µM.

Turning to `O=c1c2cc(F)ccc2sn1-c1ccc(Cl)cc1` [2-(4-chlorophenyl)-5-fluoranyl-1,2-benzothiazol-3-one], the IC50 is over 25 µM.

As to `COc1ccc(C(=O)Nc2ccccc2C(=O)O)cc1Cl`, the IC50 was over 25 µM.

With `O=C(Cn1sc2ccccc2c1=O)Nc1ccccc1I` [N-(2-iodanylphenyl)-2-(3-oxidanylidene-1,2-benzothiazol-2-yl)ethanamide], the half-inhibitory concentration (IC50) is over 25 µM.

As to `COc1ccc(C(=O)NCC(=O)O)cc1`, the IC50 was over 25 µM.

Molecule `COc1ccc(C(=O)NC(CC(=O)O)c2cccc(Cl)c2)cc1` (configuration not stated) [3-(3-chlorophenyl)-3-[(4-methoxybenzoyl)amino]propanoic acid] yielded an IC50 of over 25 µM.

Consider `N#Cc1ccccc1NC(=O)Cn1sc2ccccc2c1=O`, for which the IC50 was over 25 µM.

Consider `COc1ccc(C(=O)Nc2cc(OC)ccc2C(=O)O)cc1` [KUC105624N], for which the IC50 was over 25 µM.

Molecule `O=C(Nc1cc(Cl)ccc1C(=O)O)c1ccc(Cl)cc1` [4-chloranyl-2-[(4-chlorophenyl)carbonylamino]benzoic acid] showed an IC50 of over 25 µM.

Consider `O=c1c2cc(C(F)(F)F)ccc2sn1-c1ccccc1` [KSC-09-037], for which the IC50 is over 25 µM.

Regarding `COc1cccc(C(=O)Nc2cc(Cl)ccc2C(=O)O)c1`, the IC50 was over 25 µM.

For `O=C(Cn1sc2ccccc2c1=O)Nc1cccc(F)c1` [N-(3-fluorophenyl)-2-(3-oxo-1,2-benzothiazol-2-yl)acetamide], the IC50 is over 25 µM.

The molecule `Cn1sc(=O)c2ccccc21` [KUC103851N] came in with an IC50 of over 25 µM.

For `O=C(Nc1cc(Cl)ccc1C(=O)O)c1ccc(-c2cccs2)cc1` [KUC106464N], the half-maximal inhibitory concentration (IC50) is over 25 µM.

With `CC(C)c1ccc(C(=O)Nc2cc(Cl)ccc2C(=O)O)cc1` [4-chloro-2-[[oxo-(4-propan-2-ylphenyl)methyl]amino]benzoic acid], the IC50 is over 25 µM.

Molecule `O=c1c2c(Br)cccc2sn1-c1ccccc1` [4-bromanyl-2-phenyl-1,2-benzothiazol-3-one] came in with an IC50 of over 25 µM.

Take `CCc1ccc(C(=O)Nc2cc(Cl)ccc2C(=O)O)cc1` [KSC-6-279]: the concentration for half-maximal inhibition (IC50) is over 25 µM.

Turning to `O=C(Cn1sc2ccccc2c1=O)NCc1ccccc1`, the IC50 was over 25 µM.

As to `COc1cc(C(=O)Nc2cc(Cl)ccc2C(=O)O)cc(OC)c1OC`, the IC50 is over 25 µM.

The molecule `COc1ccc(C(=O)Nc2cc(I)ccc2C(=O)O)cc1` [4-iodanyl-2-[(4-methoxyphenyl)carbonylamino]benzoic acid] yielded an IC50 of over 25 µM.

In turn, `O=c1c2ccccc2sn1-c1ccccc1` [2-phenyl-1,2-benzothiazol-3-one] returned an IC50 of over 25 µM.

Regarding `COc1ccc(C(=O)Nc2ccccc2-c2nn[nH]n2)cc1` [4-methoxy-N-[2-(2H-1,2,3,4-tetrazol-5-yl)phenyl]benzamide], the IC50 is over 25 µM.

Consider `CC(=O)Nc1ccc2c(=O)n(-c3ccccc3)sc2c1` [KUC104218N], for which the IC50 is over 25 µM.

`COc1ccc(C(=O)NC(CC(=O)O)c2ccc(Cl)cc2)cc1` (configuration not stated) [3-(4-chlorophenyl)-3-[(4-methoxyphenyl)carbonylamino]propanoic acid] came in with an IC50 of over 25 µM.

`O=c1s[nH]c2ccccc12` [KUC103850N] came in with a concentration for half-maximal inhibition (IC50) of over 25 µM.

`O=c1c2ccccc2sn1-c1cccc(Cl)c1` [2-(3-chlorophenyl)-1,2-benzothiazol-3-one] had an IC50 of over 25 µM.

Consider `O=C1c2cccc(Br)c2SCN1c1ccccc1` [8-bromanyl-3-phenyl-2H-1,3-benzothiazin-4-one], for which the half-maximal inhibitory concentration (IC50) is over 25 µM.

As to `O=c1c2ccccc2sn1-c1ccccc1Cl`, the IC50 is over 25 µM.

As for `O=c1ccsn1-c1ccccc1` [2-Phenyl-isothiazol-3-one], the IC50 was over 25 µM.

Molecule `COc1ccc(C(=O)Nc2ccc(Cl)cc2C(=O)O)cc1` [KUC105713N] returned an IC50 of over 25 µM.

For the molecule `Cc1cc(=O)n(-c2ccccc2)s1`, the IC50 was over 25 µM.

`COc1ccc(C(=O)Nc2cnccc2C(=O)O)cc1` [3-[(4-methoxybenzoyl)amino]pyridine-4-carboxylic acid] came in with an IC50 of over 25 µM.

Consider `O=c1cc(-c2ccccc2)sn1-c1ccccc1`, for which the IC50 is over 25 µM.

In the case of `O=C(Nc1cc(Cl)ccc1C(=O)O)c1ccc(-c2ccccc2)cc1` [4-chloranyl-2-[(4-phenylphenyl)carbonylamino]benzoic acid], the IC50 was over 25 µM.

In turn, `O=c1c2ccccc2sn1-c1ccc(Cl)cc1Cl` [KUC103882N] registered an IC50 of over 25 µM.

`COC(=O)c1cc(Cl)ccc1NC(=O)c1ccc(OC)cc1` [methyl 5-chloranyl-2-[(4-methoxyphenyl)carbonylamino]benzoate] registered an IC50 of over 25 µM.

Consider `COc1ccccc1NC(=O)Cn1sc2ccccc2c1=O` [N-(2-methoxyphenyl)-2-(3-oxidanylidene-1,2-benzothiazol-2-yl)ethanamide], for which the IC50 is over 25 µM.

Take `COc1ccccc1-n1sc2ccccc2c1=O` [KUC103854N]: the IC50 is over 25 µM.

`O=C(CCn1sc2ccccc2c1=O)Nc1ccccc1` [3-(3-oxidanylidene-1,2-benzothiazol-2-yl)-N-phenyl-propanamide]: the IC50 is over 25 µM.

Molecule `COc1ccc(NC(=O)c2ccccc2C(=O)O)cc1` [KSC-6-244] returned an IC50 of over 25 µM.

`O=c1c2cc(F)ccc2sn1-c1ccccc1Cl` registered an IC50 of over 25 µM.

On to `O=C(Cn1sc2ccccc2c1=O)Nc1ccccc1C(F)(F)F` [KUC105610N], for which the IC50 was over 25 µM.

As to `O=C(Cn1sc2ccccc2c1=O)Nc1cccc(C(F)(F)F)c1` [KUC104221N], the IC50 was over 25 µM.

In turn, `CCOC(=O)Cn1sc2ccccc2c1=O` [KUC104555N] yielded an IC50 of over 25 µM.

`Cn1c2ccccc2c(=O)n1-c1ccccc1` [1-methyl-2-phenyl-3-indazolone] returned an IC50 of over 25 µM.

On to `O=C1CCN(C(=O)Nc2cc(Cl)ccc2C(=O)O)CC1` [4-chloro-2-[[oxo-(4-oxo-1-piperidinyl)methyl]amino]benzoic acid], for which the IC50 is over 25 µM.

`COc1ccc(C(=O)NC(C(=O)O)c2ccccc2)cc1` (configuration not stated) [2-[(4-methoxyphenyl)carbonylamino]-2-phenyl-ethanoic acid] returned an IC50 of over 25 µM.

Regarding `COc1ccc(S(=O)(=O)Nc2cc(Cl)ccc2C(=O)O)cc1`, the IC50 was over 25 µM.

Molecule `CC(=O)Nc1cc(Cl)ccc1C(=O)O` [KUC105931N] displayed a half-maximal inhibitory concentration (IC50) of over 25 µM.

Take `O=c1c2cc(N3CCOCC3)ccc2sn1-c1ccccc1`: the IC50 is over 25 µM.

The molecule `O=c1c2ccc(F)cc2sn1Cc1ccccc1` [6-fluoro-2-(phenylmethyl)-1,2-benzothiazol-3-one] registered an IC50 of over 25 µM.

Turning to `COc1ccc2c(c1)CN(c1cc(Cl)ccc1C(=O)O)C2=O` [4-chloro-2-(6-methoxy-3-oxo-1H-isoindol-2-yl)benzoic acid], the IC50 was over 25 µM.

The molecule `CN(C)c1ccc(C(=O)Nc2cc(Cl)ccc2C(=O)O)cc1` [KUC105997N] had an IC50 of over 25 µM.

As to `COc1cccc(NC(=O)Cn2sc3ccccc3c2=O)c1` [KUC104220N], the IC50 is over 25 µM.

Molecule `COc1ccc(NC(=O)c2ccccc2SCc2ccccc2)cc1` [KUC103881N] returned an IC50 of over 25 µM.

For the origin of these results see BindingDB's records for doi:10.7270/Q2C53J9J (University of Pittsburgh, 2010).
